{"source": "ChEMBL document CHEMBL1201862", "about": "“PubChem BioAssay data set” (2004)", "key": {"Nonstructural protein 1": {"biological_target": "Nonstructural protein 1 (Influenza A virus, UniProt Q194T2)", "sequence (Q194T2 whole entry)": "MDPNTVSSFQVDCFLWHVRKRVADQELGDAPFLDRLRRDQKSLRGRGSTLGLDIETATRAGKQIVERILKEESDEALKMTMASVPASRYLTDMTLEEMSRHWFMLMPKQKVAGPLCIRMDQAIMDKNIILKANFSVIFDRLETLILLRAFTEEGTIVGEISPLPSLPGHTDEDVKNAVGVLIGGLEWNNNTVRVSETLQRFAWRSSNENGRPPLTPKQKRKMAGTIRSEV", "format": "functional, Influenza A virus (A/California/07/2009(H1N1))"}, "[1]": {"test": "bead-based luminescence quenchers, dual-tagged ARNT – biochemical, AlphaScreen, cherry-pick, artefact control for ARNT-TACC3 interaction inhibitor project, dose response (AID 651705);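 further: AlphaScreen bead proximity signal that flags compounds interfering with the detection technology; potency reflects signal decrease which marks the compound as an assay artifact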", "format": "functional"}, "[2]": {"biological_target": "T1, Probable nicotinate-nucleotide adenylyltransferase (Staphylococcus aureus (strain N315), UniProt P65502)", "T1 sequence (P65502 whole entry)": "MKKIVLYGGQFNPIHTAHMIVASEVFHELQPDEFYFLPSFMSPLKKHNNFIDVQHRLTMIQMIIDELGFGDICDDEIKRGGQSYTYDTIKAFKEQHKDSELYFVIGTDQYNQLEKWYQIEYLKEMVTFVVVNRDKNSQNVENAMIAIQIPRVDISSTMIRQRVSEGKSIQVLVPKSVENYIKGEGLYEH", "format": "functional, Staphylococcus aureus subsp. aureus N315", "settings": "read-out: IC50_Mean"}, "[3]": {"biological_target": "T1, Probable nicotinate-nucleotide adenylyltransferase", "format": "functional, Staphylococcus aureus subsp. aureus N315"}, "[4]": {"test": "viability loss in A549 lung cancer cells – cell-based, CellTiter-Glo luminescence, dry powder, set 3, cytotoxicity control, dose response (AID 743146)", "format": "functional"}, "[5]": {"test": "HEK293T viability loss – cell-based, ATP luminescence, dry powder, Set6, cytotoxicity control, dose response (AID 743142)", "format": "functional", "settings": "HEK293"}, "Interleukin-8 [6]": {"biological_target": "T2, Interleukin-8 (Homo sapiens, UniProt P10145)", "T2 sequence (P10145 whole entry)": "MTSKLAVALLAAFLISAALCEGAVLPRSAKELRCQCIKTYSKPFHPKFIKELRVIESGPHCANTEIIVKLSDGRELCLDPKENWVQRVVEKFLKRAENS", "test": "Dose Response confirmation of uHTS small molecule hits for cystic fibrosis induced NFkb Inhibitors in a TNFa-induced IL8 counterscreen.", "format": "functional", "settings": "read-out: IC50_Mean"}, "Interleukin-8 [7]": {"biological_target": "T2, Interleukin-8", "test": "Dose Response confirmation of uHTS small molecule hits for cystic fibrosis induced NFkb Inhibitors in a PAF-induced IL8 counterscreen.", "format": "functional", "settings": "read-out: IC50_Mean"}, "[8]": {"biological_target": "Adenosylmethionine-8-amino-7-oxononanoate aminotransferase (Mycobacterium tuberculosis, UniProt P9WQ81)", "sequence (P9WQ81 whole entry)": "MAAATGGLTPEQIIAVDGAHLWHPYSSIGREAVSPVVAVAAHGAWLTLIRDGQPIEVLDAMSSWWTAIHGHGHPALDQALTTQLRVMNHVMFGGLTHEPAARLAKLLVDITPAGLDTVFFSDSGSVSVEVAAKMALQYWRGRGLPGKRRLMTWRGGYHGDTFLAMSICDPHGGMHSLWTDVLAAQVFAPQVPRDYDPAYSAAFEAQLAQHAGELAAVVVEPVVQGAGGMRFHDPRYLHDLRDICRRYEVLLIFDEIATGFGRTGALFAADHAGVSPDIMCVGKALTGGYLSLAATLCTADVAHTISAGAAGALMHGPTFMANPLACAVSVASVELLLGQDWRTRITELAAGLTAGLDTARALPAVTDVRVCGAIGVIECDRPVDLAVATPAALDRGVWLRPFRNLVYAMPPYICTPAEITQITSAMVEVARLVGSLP", "test": "Mycobacterium tuberculosis BioA enzyme inhibitor Measured in Biochemical System Using Plate Reader - 2163-02_Inhibitor_Dose_CherryPick_Activity.", "format": "functional, Mycobacterium tuberculosis UT205"}, "[9]": {"test": "fluconazole-exposed Candida albicans growth modulators – fluorescence, retest, confirmation (AID 2467)", "format": "functional, cell-based"}, "[10]": {"biological_target": "T3, Short transient receptor potential channel 4 (Mus musculus, UniProt Q9QUQ5)", "T3 sequence (Q9QUQ5 whole entry)": "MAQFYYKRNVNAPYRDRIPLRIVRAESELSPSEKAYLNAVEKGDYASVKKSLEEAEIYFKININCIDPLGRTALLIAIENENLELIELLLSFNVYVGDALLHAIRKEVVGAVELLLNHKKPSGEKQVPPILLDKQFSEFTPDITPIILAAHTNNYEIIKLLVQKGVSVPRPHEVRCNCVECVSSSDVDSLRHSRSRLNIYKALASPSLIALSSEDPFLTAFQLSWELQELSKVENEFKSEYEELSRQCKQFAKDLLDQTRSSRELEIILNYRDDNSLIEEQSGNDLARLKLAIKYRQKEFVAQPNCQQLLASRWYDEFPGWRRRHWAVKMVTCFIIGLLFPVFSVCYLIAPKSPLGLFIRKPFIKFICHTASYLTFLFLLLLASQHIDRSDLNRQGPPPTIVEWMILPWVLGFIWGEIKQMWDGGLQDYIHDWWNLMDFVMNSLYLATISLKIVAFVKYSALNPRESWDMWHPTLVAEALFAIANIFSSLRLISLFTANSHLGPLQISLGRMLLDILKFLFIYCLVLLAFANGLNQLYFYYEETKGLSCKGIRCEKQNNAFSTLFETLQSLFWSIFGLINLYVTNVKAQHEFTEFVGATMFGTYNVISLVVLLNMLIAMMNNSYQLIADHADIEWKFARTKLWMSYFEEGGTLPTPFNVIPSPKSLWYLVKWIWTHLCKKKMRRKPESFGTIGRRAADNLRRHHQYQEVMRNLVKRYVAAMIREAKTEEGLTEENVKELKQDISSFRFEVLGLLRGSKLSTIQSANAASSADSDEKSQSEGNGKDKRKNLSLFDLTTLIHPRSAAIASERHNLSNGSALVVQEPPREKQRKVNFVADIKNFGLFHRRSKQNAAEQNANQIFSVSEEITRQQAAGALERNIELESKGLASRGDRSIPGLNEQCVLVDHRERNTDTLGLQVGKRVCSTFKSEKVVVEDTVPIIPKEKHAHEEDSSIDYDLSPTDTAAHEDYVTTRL", "test": "calcium entry via TRPC4 opening agents – cell-based, HEK293 TRPC4/mu-opioid, Fluo-4 calcium, dose response (AID 434937)", "format": "functional"}, "[11]": {"test": "NIH-3T3 fibroblast cytotoxicity, dose response, cytotoxicity control, cell-based, fluorescence, Alamar Blue, secondary assay (AID 2327);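 further: NIH-3T3 mouse fibroblasts cultured with fluconazole at 8 µg/mL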", "format": "functional"}, "[12]": {"biological_target": "T4, High affinity choline transporter 1 (Homo sapiens, UniProt Q9GZV3)", "T4 sequence (Q9GZV3 whole entry)": "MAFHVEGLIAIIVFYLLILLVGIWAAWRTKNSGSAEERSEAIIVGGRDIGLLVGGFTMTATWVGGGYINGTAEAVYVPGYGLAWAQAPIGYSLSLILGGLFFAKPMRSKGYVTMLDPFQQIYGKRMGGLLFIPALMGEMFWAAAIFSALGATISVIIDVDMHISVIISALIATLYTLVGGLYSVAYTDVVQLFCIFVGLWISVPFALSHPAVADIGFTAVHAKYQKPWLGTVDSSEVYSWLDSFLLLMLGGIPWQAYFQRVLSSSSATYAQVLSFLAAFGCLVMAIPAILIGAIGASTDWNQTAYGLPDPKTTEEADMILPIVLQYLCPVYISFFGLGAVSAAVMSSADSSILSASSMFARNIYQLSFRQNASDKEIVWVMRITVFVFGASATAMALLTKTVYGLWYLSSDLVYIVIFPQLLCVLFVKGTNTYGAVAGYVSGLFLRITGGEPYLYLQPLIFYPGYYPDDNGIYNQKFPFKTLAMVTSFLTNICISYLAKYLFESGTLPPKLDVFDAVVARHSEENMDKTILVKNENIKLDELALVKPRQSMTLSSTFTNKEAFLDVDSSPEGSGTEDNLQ", "test": "human choline transporter blockers, potency – cell-based, 10-point CRC, membrane potential dye, dose response (AID 588401);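 further: membrane potential dye fluorescence of choline-evoked depolarization via CHT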", "format": "functional"}, "[13]": {"biological_target": "T4, High affinity choline transporter 1", "test": "human choline transporter blockers, potency – cell-based, 5-point CRC, membrane potential dye, dose response (AID 504840)", "format": "functional"}, "Albumin": {"biological_target": "Albumin (Bos taurus, UniProt P02769)", "sequence (P02769 whole entry)": "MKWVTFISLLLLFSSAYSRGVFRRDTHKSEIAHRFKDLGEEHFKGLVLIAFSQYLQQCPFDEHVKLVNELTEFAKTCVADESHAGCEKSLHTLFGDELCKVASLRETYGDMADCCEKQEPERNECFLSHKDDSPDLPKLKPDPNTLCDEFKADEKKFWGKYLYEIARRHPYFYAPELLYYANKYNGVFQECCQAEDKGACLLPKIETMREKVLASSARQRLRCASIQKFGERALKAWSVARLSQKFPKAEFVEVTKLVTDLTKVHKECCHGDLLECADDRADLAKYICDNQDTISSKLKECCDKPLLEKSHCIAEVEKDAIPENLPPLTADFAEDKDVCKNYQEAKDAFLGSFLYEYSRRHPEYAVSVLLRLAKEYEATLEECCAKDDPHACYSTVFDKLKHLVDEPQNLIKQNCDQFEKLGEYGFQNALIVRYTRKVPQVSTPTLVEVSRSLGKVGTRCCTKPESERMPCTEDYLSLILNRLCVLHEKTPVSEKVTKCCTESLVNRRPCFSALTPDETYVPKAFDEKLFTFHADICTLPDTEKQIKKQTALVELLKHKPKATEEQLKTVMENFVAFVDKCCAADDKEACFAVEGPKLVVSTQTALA", "test": "Counterscreen for inhibitors of T-cell receptor (TCR)-CD3 interaction: Fluorescence-based biochemical high throughput dose response assay to identify inhibitors of T-cell receptor (TCR)-CD3 interaction using a TAMRA-labeled BSA probe.", "format": "functional"}, "[14]": {"biological_target": "T5, ATP-dependent translocase ABCB1 (Homo sapiens, UniProt P08183)", "T5 sequence (P08183 whole entry)": "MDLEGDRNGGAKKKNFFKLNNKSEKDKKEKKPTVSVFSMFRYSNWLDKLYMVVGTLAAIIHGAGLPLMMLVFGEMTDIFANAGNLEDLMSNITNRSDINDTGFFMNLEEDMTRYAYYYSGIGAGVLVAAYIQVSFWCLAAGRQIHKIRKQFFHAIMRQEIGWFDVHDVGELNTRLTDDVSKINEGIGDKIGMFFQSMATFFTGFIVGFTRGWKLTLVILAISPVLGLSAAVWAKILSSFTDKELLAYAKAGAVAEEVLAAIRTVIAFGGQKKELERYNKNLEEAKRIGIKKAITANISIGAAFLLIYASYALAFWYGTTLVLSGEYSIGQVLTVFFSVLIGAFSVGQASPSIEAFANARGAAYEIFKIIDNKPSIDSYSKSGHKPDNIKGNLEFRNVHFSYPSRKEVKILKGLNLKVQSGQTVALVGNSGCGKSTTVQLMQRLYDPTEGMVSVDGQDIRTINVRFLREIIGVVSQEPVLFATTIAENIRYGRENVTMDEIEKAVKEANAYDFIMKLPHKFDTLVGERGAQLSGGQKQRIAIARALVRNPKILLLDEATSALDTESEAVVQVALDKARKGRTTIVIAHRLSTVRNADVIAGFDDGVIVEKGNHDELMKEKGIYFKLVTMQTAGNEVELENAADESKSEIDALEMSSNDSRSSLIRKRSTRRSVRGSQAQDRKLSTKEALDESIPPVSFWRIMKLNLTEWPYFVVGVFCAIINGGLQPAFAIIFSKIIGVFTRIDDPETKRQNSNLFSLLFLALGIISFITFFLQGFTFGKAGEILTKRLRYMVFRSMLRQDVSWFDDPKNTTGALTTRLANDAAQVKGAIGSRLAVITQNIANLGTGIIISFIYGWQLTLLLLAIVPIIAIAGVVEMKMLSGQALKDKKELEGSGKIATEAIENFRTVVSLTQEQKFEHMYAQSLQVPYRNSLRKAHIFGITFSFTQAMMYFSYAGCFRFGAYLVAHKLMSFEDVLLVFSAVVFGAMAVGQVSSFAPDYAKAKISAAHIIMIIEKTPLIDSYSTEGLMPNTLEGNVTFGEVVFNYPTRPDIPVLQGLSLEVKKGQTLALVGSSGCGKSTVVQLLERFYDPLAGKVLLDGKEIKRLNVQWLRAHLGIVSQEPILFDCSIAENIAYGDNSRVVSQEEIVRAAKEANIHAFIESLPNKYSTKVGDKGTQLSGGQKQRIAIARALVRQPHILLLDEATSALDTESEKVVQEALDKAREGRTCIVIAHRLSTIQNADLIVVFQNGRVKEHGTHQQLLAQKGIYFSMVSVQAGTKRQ", "test": "P-gp JC-1 efflux blockade concentration-response – Jurkat-DNR cells, flow cytometry, set 2, dose response (AID 504569);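 further: potency of pump inhibitors that raise cellular JC-1 green fluorescence up to the nicardipine level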", "format": "functional", "settings": "read-out: EC50_MICROM_"}, "[15]": {"biological_target": "T5, ATP-dependent translocase ABCB1", "test": "inhibition of BCRP-mediated JC-1 efflux – Ig-MXP3 cells, flow cytometry, set 2, dose response (AID 504566);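 further: flow cytometry median green fluorescence of retained JC-1 dye; potency of efflux pump inhibition measured as rising substrate retention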", "format": "functional", "settings": "read-out: EC50_MICROM_"}, "HeLa": {"tested_on": "HeLa", "test": "viability loss in HeLa cells – cell-based, ATP luminescence, cherry-pick samples, cytotoxicity control, dose response (AID 687004)", "format": "functional", "settings": "Homo sapiens"}, "[16]": {"test": "blockers of HIV-1 ZM109 envelope-driven cell-cell fusion – HeLa effector, CEM target cells, luciferase, cherry-pick, dose response (AID 652058)", "format": "functional, cell-based"}, "[17]": {"test": "inhibition of ARNT PAS-B/TACC3 complex formation – biochemical, AlphaScreen, cherry-picked samples, confirmation (AID 651703);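 further: His-tagged ARNT PAS-B domain paired with GST-TACC3 E629A dimer coactivator fragment; potency of inhibitors that break up the complex and lower AlphaScreen signal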", "format": "functional, Homo sapiens"}}, "note": "Activity calls are given as the source filed them."}
{"smiles": "CCOc1cccc(/C=N/NC(=O)c2cccnc2)c1O", "values": [{"measurement": "IC50", "setting": "Nonstructural protein 1", "value": "15.5 µM (active)"}, {"measurement": "AC50", "setting": "[1]", "value": "101 µM (active)"}]}
{"smiles": "Cc1ccc(C2(SCC(N)C(=O)O)c3ccccc3-c3ccccc32)cc1", "note": "(stereo not given)", "values": [{"measurement": "IC50", "setting": "[2]", "value": "32.5 µM (active)"}, {"measurement": "IC50", "setting": "[3]", "value": "11 µM (active)"}]}
{"smiles": "COc1ccc(C(=O)NCCC(=O)N[C@@H]2CCCc3ccccc32)cc1", "values": [{"measurement": "AC50", "setting": "[4]", "value": "> 52 µM (inactive)"}, {"measurement": "AC50", "setting": "[5]", "value": "3.54 µM (active)"}]}
{"smiles": "CC1C(c2ccccc2)OCCN1C(=S)Nc1ccc(S(=O)(=O)N2CCCCC2)cc1", "note": "(stereo not given)", "values": [{"measurement": "IC50", "setting": "Interleukin-8 [6]", "value": "4.48 µM (active)"}, {"measurement": "IC50", "setting": "Interleukin-8 [7]", "value": "3.69 µM (active)"}]}
{"smiles": "C[C@@H]1CN([C@@H](C)CO)C(=O)c2cc(C#Cc3cccnc3)cnc2O[C@H]1CN(C)S(C)(=O)=O", "values": [{"measurement": "AC50", "setting": "[8]", "value": "6.02 µM (active)"}]}
{"smiles": "CC(C)(C)C(=O)NC(=S)NNC(=O)C(c1ccccc1)c1ccccc1", "values": [{"measurement": "EC50", "setting": "[9]", "value": "1.2 µM (active)"}, {"measurement": "EC50", "setting": "[10]", "value": "1.06 µM (active)"}, {"measurement": "EC50", "setting": "[11]", "value": "5.35 µM (inconclusive)"}, {"measurement": "IC50", "setting": "[12]", "value": "4.01 µM (active)"}, {"measurement": "IC50", "setting": "[13]", "value": "6.48 µM (active)"}]}
{"smiles": "O=C(NNC(=S)NC1CCCCC1)c1ccccc1O", "values": [{"measurement": "IC50", "setting": "Albumin", "value": "> 94.1 µM (inactive)"}]}
{"smiles": "Cc1cccc(-c2cc3nc(-c4ccccc4)cc(N4CCN(C(=O)c5ccco5)CC4)n3n2)c1", "values": [{"measurement": "EC50", "setting": "[14]", "value": "3.77 µM (active)"}, {"measurement": "EC50", "setting": "[15]", "value": "3.22 µM (active)"}]}
{"smiles": "COc1ccccc1C(=O)Nc1ccc2c(c1)OC[C@H](C)N(C(C)=O)C[C@H](C)[C@H](OC)CN(C)C2=O", "values": [{"measurement": "AC50", "setting": "HeLa", "value": "44.9 µM (active)"}, {"measurement": "AC50", "setting": "[16]", "value": "33.4 µM (active)"}]}
{"smiles": "O=C(NC[C@H]1[C@H](c2ccccc2)[C@H](CO)N1Cc1ccccn1)C1CCC1", "values": [{"measurement": "AC50", "setting": "[17]", "value": "129 µM (active)"}]}
